Assays:
[1] = molecular target: Rho kinase 1 (ROCK1) (Homo sapiens, UniProt Q13464); experiment: In vitro inhibitory activity assay ROCK1 (ADP-Glo); assay type: biochemical; conditions: ATP 200 μM, Cheng-Prusoff from IC50; read-out: ROCK 1 (Ki, range of activity)
Protocol: (§1) The effectiveness of compounds of the present invention to inhibit Rho kinase activity can be determined in a 10 μl assay containing 40 mM Tris pH7.5, 20 mM MgCl2 0.1 mg/mL BSA, 50 μM DTT and 2.5 μM peptide substrate (Myelin Basic Protein) using an ADP-Glo kit (Promega). Compounds were dissolved in DMSO such that the final concentration of DMSO was 1% in the assay. All reactions/incubations are performed at 25° C. Compound (2 ul) and either Rho kinase 1 or 2 (4 μl) were mixed and incubated for 30 mins. Reactions were initiated by addition of ATP (4μ1) such that the final concentration of ATP in the assay was 200 μM. After a 1 hour incubation 10 μl of ADP-Glo Reagent was added and after a further 1 hour incubation 20 ul of Kinase Detection Buffer was added and the mixture incubated for a further 45 minutes. The luminescent signal was measured on a luminometer. […] Compounds were tested in dose-response format and the inhibition of kinase activity was calculated at each concentration of compound. To determine the IC50 (concentration of compound required to inhibit 50% of the enzyme activity) data were fit to a plot of % inhibition vs Log10 compound concentration using a sigmoidal fit with a variable slope and fixing the maximum to 100% and the minimum to 0%. To determine the Ki values the Cheng-Prusoff equation was utilized (Ki=IC50/(1+[S]/Km).

[2] = molecular target: Rho kinase 2 (ROCK2) (Homo sapiens, UniProt O75116); experiment: In vitro inhibitory activity assay ROCK2 (ADP-Glo); assay type: biochemical; conditions: ATP 200 μM, Cheng-Prusoff from IC50; read-out: ROCK2 (Ki, range of activity)
Sequence of Rho kinase 2 (ROCK2) (O75116 whole entry): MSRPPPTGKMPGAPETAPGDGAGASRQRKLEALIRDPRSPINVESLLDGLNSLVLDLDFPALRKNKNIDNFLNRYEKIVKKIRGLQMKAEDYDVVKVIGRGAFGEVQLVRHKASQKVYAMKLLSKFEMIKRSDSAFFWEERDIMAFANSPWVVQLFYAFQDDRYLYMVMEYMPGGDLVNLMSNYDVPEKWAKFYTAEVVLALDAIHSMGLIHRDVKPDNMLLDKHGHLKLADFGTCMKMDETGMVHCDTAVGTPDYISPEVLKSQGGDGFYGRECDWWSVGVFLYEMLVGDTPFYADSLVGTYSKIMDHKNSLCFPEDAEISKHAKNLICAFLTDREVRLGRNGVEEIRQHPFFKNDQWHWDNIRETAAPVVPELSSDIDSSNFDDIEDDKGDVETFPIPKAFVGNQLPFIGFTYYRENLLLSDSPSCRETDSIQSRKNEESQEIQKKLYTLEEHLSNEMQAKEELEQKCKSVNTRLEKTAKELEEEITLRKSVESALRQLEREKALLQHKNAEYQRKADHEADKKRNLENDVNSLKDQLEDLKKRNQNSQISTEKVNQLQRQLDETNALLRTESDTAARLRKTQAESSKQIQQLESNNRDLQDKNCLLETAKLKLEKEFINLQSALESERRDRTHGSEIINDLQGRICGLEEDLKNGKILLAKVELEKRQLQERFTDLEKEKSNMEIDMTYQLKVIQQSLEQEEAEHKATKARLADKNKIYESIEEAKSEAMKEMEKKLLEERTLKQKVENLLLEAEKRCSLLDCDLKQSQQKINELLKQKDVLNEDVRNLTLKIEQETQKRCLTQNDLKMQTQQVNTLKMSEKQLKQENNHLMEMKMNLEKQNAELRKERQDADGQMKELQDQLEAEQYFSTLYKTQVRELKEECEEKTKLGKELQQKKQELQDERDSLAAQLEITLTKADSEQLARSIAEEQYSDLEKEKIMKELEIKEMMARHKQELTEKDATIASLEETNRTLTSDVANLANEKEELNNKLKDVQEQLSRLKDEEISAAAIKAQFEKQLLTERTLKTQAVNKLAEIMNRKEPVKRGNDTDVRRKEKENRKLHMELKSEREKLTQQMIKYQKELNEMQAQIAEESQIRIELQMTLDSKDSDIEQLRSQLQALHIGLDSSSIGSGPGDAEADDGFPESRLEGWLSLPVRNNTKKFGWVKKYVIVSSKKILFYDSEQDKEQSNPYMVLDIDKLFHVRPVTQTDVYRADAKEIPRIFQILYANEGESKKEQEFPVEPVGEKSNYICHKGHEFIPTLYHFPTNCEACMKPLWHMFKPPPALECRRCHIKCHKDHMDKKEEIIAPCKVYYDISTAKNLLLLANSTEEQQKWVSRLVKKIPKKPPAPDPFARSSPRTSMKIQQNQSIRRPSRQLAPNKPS
Protocol: as §1

[3] = molecular target: PKA (Homo sapiens, UniProt P17612); experiment: In vitro inhibitory activity assay for PKA (ADP-Glo), reported as selectivity ratio vs ROCK2; assay type: biochemical; conditions: Ki value for PKA divided by Ki value of ROCK2
Protocol: The effectiveness of compounds of the present invention to inhibit PKA activity can be determined in a 10 μl assay containing 40 mM Tris pH7.5, 20 mM MgCl2 0.1 mg/ml BSA, 50 μM DTT and 260 μM peptide substrate (kemptide) using an ADP-Glo kit (Promega). Compounds were dissolved in DMSO such that the final concentration of DMSO was 1% in the assay. All reactions/incubations are performed at 25° C. Compound and PKA enzyme (6 μl) were mixed and incubated for 30 mins. Reactions were initiated by addition of ATP (4 μl ) such that the final concentration of ATP in the assay was 10 μM. After a 30 minute incubation 10 μl of ADP-Glo Reagent was added and after a further 1 hour incubation 20 μl of Kinase Detection Buffer was added and the mixture incubated for a further 45 minutes. The luminescent signal was measured on a luminometer. […] Compounds were tested in dose-response format and the inhibition of kinase activity was calculated at each concentration of compound. To determine the IC50 (concentration of compound required to inhibit 50% of the enzyme activity) data were fit to a plot of % inhibition vs Logio compound concentration using a sigmoidal fit with a variable slope and fixing the maximum to 100% and the minimum to 0%. To determine the Ki values the Cheng-Prusoff equation was utilized (Ki=IC50/(1+[S]/Km).
In vitro inhibitory activities for PKA were reported as selectivity ratio vs. ROCK-2.

[4] = system: cch-evoked bronchoconstriction; experiment: Experimental bronchospasm (carbachol-induced bronchoconstriction, Konzett & Roessler); assay type: in vivo, Male CD Sprague Dawley rats; conditions: iv, rat, 1 hour after administration, carbachol 80 μg/kg i.v., read-out: Inhibition % (±s.e. mean) of cch-evoked bronchoconstriction; for inhibition in vivo at 0.01 mg/kg: dose 10 μg/Kg intratracheal; for inhibition in vivo at 0.003 mg/kg: dose 3 μg/Kg intratracheal
Protocol: Male CD Sprague Dawley rats (220-250 g) were purchased from Charles River Laboratories Italy (Calco, Lecco). Prior to use animals were acclimated for at least 5 days 20 to the local vivarium conditions (room temperature: 20-24° C.; relative humidity: 40-70%), having free access to standard rat chow and softened tap water. All the procedures were performed in animal operating rooms according to ethical guidelines for the conduct of animal research (D. L.vo 116/92).
Rats were anaesthetized with a combination of anesthetics (Zoletil 20 mg/kg+Xylazine 5 mg/kg, ip) for the i.t. administration. A laryngoscope was moved forward into the mouth to visualize the trachea and guide the insertion of the tip of a custom-made small diameter cannula directly into the trachea and located 1-2 mm above the bifurcation.
In order to assess the residual inhibitory activity of test compounds 1 hour after their administration, rats were surgically prepared. Body temperature was kept constant at 37° C. by a heated blanket.
The trachea was cannulated and the lungs were ventilated artificially with a constant volume ventilator (rodent ventilator mod. 7025, Ugo Basile, Comerio, Varese, Italy) at a frequency of 80 strokes/min and at a tidal volume of 10 ml/kg. To avoid spontaneous breathing, the animals were injected intravenously (i.v.) with pancuronium bromide (2 mg/kg).
Bronchoconstriction was induced by the i.v. injection of carbachol (cch) 80 μg/kg. In control experiments, repeated injections of this dose produced reproducible short-lasting (1-2 min duration) bronchospasms. Bronchoconstriction, quantified as a reduction of tidal volume, was evaluated according to the method described by Konzett & Roessler (1). Systemic blood pressure and changes in airway resistance were monitored with a digital pressure transducer.
After stabilisation of artificial breathing and blood pressure, animals were injected (i.v.) with cch every 3 min, until 3 stable and reproducible basal responses were obtained. […] The effect of test compounds was 15 expressed as % inhibition of cch-evoked bronchoconstriction in time-matched, vehicle-treated, animals (controls).
Tested compounds were dissolved in dH2O and 1% Tween-80 or 0,001% HCl and further diluted to target concentrations. Tested compounds were instilled locally into the trachea in a volume of 125 μl.
All data are presented as mean±s.e.mean. The % inhibition of experimental bronchospasm was calculated comparing the drug-treated with the vehicle-treated control animals. Data analysis was performed using GraphPad Prism software.

Sequence of Rho kinase 1 (ROCK1) (Q13464 whole entry): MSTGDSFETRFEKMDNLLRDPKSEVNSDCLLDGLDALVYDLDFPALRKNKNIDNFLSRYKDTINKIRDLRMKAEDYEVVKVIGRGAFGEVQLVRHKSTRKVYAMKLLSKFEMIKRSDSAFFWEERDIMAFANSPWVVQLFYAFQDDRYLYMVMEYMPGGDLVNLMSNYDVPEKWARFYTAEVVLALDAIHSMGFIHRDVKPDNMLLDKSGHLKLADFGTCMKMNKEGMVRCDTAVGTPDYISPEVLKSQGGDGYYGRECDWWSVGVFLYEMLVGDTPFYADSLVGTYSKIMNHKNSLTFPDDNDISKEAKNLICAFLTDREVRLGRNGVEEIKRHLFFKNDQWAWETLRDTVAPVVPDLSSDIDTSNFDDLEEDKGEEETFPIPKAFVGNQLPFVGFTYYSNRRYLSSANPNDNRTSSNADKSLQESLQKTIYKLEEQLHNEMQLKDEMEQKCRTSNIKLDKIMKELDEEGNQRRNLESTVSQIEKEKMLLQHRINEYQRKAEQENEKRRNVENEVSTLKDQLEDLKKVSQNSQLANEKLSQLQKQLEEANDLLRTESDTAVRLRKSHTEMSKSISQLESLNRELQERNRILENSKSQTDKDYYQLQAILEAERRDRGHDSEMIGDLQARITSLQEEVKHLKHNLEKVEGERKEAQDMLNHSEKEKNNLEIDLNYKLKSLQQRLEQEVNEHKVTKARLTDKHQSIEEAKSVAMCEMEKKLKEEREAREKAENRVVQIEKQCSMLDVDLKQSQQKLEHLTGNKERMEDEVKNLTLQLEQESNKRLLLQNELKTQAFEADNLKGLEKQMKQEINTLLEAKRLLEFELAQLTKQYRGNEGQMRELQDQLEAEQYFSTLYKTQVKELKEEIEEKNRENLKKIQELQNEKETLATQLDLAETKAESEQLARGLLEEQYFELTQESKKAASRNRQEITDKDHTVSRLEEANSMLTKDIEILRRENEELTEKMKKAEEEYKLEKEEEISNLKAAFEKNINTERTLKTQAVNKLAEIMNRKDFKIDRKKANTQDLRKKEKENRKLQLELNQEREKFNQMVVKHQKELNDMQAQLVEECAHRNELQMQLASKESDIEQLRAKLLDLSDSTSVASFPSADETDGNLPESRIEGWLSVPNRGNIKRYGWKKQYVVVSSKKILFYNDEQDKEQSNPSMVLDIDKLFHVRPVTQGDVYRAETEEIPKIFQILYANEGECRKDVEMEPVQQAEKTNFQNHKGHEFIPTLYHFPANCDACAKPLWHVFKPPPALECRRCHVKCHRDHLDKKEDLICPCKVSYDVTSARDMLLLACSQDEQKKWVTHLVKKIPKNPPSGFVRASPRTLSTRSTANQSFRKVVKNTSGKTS

SMILES	Ki [1] [nM]	Ki [2] [nM]	Ratio (PKA/ROCK2) [3]	inhibition in vivo at 0.01 mg/kg [4] [%]	inhibition in vivo at 0.003 mg/kg [4] [%]
Nc1nccc(-c2cnc(NCc3cccc(C(=O)Nc4ccc(N5CCNCC5)cn4)c3)c3c2OCC3)n1 [Example 53, 3-(((7-(2-aminopyrimidin-4-yl)-2,3-dihydrofuro[3,2-c]pyridin-4-yl)amino)methyl)-N-(5-(piperazin-1-yl)pyridin-2-yl)benzamide]	≤ 3	≤ 3	*** (ratio≥10)	70.7 ± 3.4	
CN(C)CCC(=O)N1CCN(c2ccc(NC(=O)c3cccc(CNc4ncc(-c5ccnc(N)n5)c5c4CCO5)c3)nc2)CC1 [Example 66, 3-(((7-(2-aminopyrimidin-4-yl)-2,3-dihydrofuro[3,2-c]pyridin-4-yl)amino)methyl)-N-(5-(4-(3-(dimethylamino)propanoyl)piperazin-1-yl)pyridin-2-yl)benzamide]	≤ 3	≤ 3	*** (ratio≥10)	79.4 ± 7.3	
C[C@@H]1CNCCN1c1ccc(NC(=O)c2cccc(CNc3ncc(-c4ccnc(N)n4)c4c3CCO4)c2)nc1 [Example 69, (R)-3-(((7-(2-aminopyrimidin-4-yl)-2,3-dihydrofuro[3,2-c]pyridin-4-yl)amino)methyl)-N-(5-(2-methylpiperazin-1-yl)pyridin-2-yl)benzamide]	≤ 3	≤ 3	*** (ratio≥10)	74.8 ± 7.8	
CNCCNc1ccc(NC(=O)c2cccc(CNc3ncc(-c4ccnc(N)n4)c4c3CCO4)c2)nc1 [Example 70, 3-(((7-(2-aminopyrimidin-4-yl)-2,3-dihydrofuro[3,2-c]pyridin-4-yl)amino)methyl)-N-(5-((2-(methylamino)ethyl)amino)pyridin-2-yl)benzamide]	≤ 3	≤ 3	*** (ratio≥10)	62.2 ± 7	
Nc1nccc(-c2cnc(NCc3cccc(C(=O)Nc4ccc(OC5CCNCC5)cn4)c3)c3c2OCC3)n1 [Example 71, 3-(((7-(2-aminopyrimidin-4-yl)-2,3-dihydrofuro[3,2-c]pyridin-4-yl)amino)methyl)-N-(5-(piperidin-4-yloxy)pyridin-2-yl)benzamide]	≤ 3	≤ 3	*** (ratio≥10)		47.9 ± 7.7
CNCCOc1ccc(NC(=O)c2cccc(CNc3ncc(-c4ccnc(N)n4)c4c3CCO4)c2)nc1 [Example 73, 3-(((7-(2-aminopyrimidin-4-yl)-2,3-dihydrofuro[3,2-c]pyridin-4-yl)amino)methyl)-N-(5-(2-(methylamino)ethoxy)pyridin-2-yl)benzamide]	≤ 3	≤ 3	*** (ratio≥10)	76.6 ± 6	
CN1C[C@H]2C[C@@H]1CN2c1ccc(NC(=O)c2cccc(CNc3ncc(-c4ccnc(N)n4)c4c3CCO4)c2)nc1 [Example 74]	≤ 3	≤ 3	*** (ratio≥10)		77.7 ± 4
CN(C)CCNc1ccc(NC(=O)c2cccc(CNc3ncc(-c4ccnc(N)n4)c4c3CCO4)c2)nc1 [Example 77, 3-(((7-(2-aminopyrimidin-4-yl)-2,3-dihydrofuro[3,2-c]pyridin-4-yl)amino)methyl)-N-(5-((2-(dimethylamino)ethyl)amino)pyridin-2-yl)benzamide]	≤ 3	≤ 3	*** (ratio≥10)		79
CN1CCN(Cc2ccc(NC(=O)c3cccc(CNc4ncc(-c5ccnc(N)n5)c5c4CCO5)c3)nc2)CC1 [Example 78, 3-(((7-(2-aminopyrimidin-4-yl)-2,3-dihydrofuro[3,2-c]pyridin-4-yl)amino)methyl)-N-(5-((4-methylpiperazin-1-yl)methyl)pyridin-2-yl)benzamide]	≤ 3	≤ 3	*** (ratio≥10)	68.8 ± 8.6	
Nc1nccc(-c2cnc(NCc3cccc(C(=O)Nc4ccc(OC[C@]5(F)CCNC5)cn4)c3)c3c2OCC3)n1 [Example 79, (S)-3-(((7-(2-aminopyrimidin-4-yl)-2,3-dihydrofuro[3,2-c]pyridin-4-yl)amino)methyl)-N-(5-((3-fluoropyrrolidin-3-yl)methoxy)pyridin-2-yl)benzamide]	≤ 3	≤ 3	*** (ratio≥10)	58 ± 6	
CNC1(COc2ccc(NC(=O)c3cccc(CNc4ncc(-c5ccnc(N)n5)c5c4CCO5)c3)nc2)CCOCC1 [Example 80, 3-(((7-(2-aminopyrimidin-4-yl)-2,3-dihydrofuro[3,2-c]pyridin-4-yl)amino)methyl)-N-(5-((4-(methylamino)tetrahydro-2H-pyran-4-yl)methoxy)pyridin-2-yl)benzamide]	≤ 3	≤ 3	*** (ratio≥10)	85.7 ± 0.8	
CNCc1ccc(NC(=O)c2cccc(CNc3ncc(-c4ccnc(N)n4)c4c3CCO4)c2)nc1 [Example 84, 3-(((7-(2-Aminopyrimidin-4-yl)-2,3-dihydrofuro[3,2-c]pyridin-4-yl)amino)methyl)-N-(5-((methylamino)methyl)pyridin-2-yl)benzamide]	≤ 3	≤ 3	*** (ratio≥10)	89.5 ± 2	
